Values joined by “and” are separate entries in the source; they are usually repeats but may differ in a detail not shown here. Identical values can stand only once. Like-named read-outs stand apart in the source and are kept apart here.
How the values were obtained:
[1] = biological target: P. falciparum translation (P. falciparum lysate); assay: P. falciparum in vitro translation (PfIVT) assay, lysate-based, luciferase reporter; type: biochemical, Plasmodium falciparum; settings: for selectivity index/window, PfIVT compared to HsIVT: HsIVT IC50 over PfIVT IC50; for PfIVT inhibition at 30 μM (%): single-point screen
From the text: (§1) Our P. falciparum in vitro translation (PfIVT) assay is built upon previously established assays ([14], [17]) and is summarized in Fig. 1A. In this assay, successful reconstitution of Plasmodium protein translation is reported via synthesis of a luciferase reporter. For PfIVT, two independent untranslated regions (UTRs), previously shown to promote strong levels of translation ([17]), were introduced upstream and downstream of the luciferase. The 5′ UTR from P. falciparum histidine-rich protein 3 (PfHrp3) ([18]) was introduced upstream of the reporter gene, and the 3′ UTR from P. falciparum histidine-rich protein 2 (PfHrp2) gene ([19]) was introduced downstream. For the reporter construct to support our complementary human IVT assay (HsIVT), the 5′ UTR was replaced with an internal ribosome entry site (IRES) from encephalomyocarditis virus (EMCV) ([20]) and the 3′ UTR was replaced with a poly(A) tail ([21]). […] Finally, a 30-bp poly(A) tail, present within the vector and downstream of the luciferase gene, was inserted to enhance mRNA stability ([21]).
(§2) Translationally active P. falciparum or human embryonic kidney (HEK) 293F lysates were supplemented with accessory, helper, amino acid, and energy regeneration solutions (see Materials and Methods for details). In vitro translation reactions were initiated by the addition of purified mRNA to each reaction well. Using this basic assay format, a number of parameters were assessed and optimized, namely, assay temperature, time, mRNA concentration, and reaction volume (summarized in Fig. S2 in the supplemental material). In addition, we compared the luminescence signal of the CBG firefly luciferase with CBG99, derived from the click beetle […] ([18]).
3D7 parasites were synchronized following two rounds of treatment with D-sorbitol (5%), as previously described ([40]). The hematocrit was reduced from 5% (for standard culture) to 1.5 to 2% and cultures were transferred into HYPERflasks (Corning). Fresh medium was added once or twice daily. […] Harvested red blood cells (infected) were lysed by incubation in 0.1% (wt/vol) saponin on ice for 10 min with gentle agitation. Free parasites were harvested by centrifugation (2,800 × g, 10 min, 4°C) and washed 3 times in wash buffer (WB; 100 mM potassium acetate, 2.5 mM magnesium acetate, 45 mM HEPES [pH 7.4], 250 mM sucrose, 2 mM dithiothreitol, and 15 μM leupeptin) to remove lysed red blood cell debris. The resulting pellet was resuspended in 1 volume of WB supplemented with cOmplete EDTA-free protease inhibitor cocktail (Roche; 1 tablet/20 mL) and human RNase A inhibitor (Sigma; 5 U/mL). Parasite lysis was achieved by nitrogen cavitation using a prechilled 45-mL Parr cell disruption vessel (1,500 lb/in^2, 60 min, 4°C). To clarify the lysate, it was centrifuged (10,000 × g, 15 min, 4°C), and the supernatant was collected, transferred into fresh tubes, and centrifuged (30,000 × g, 15 min, 4°C). As a quality assurance step for each lysate, the RNA content of the resulting supernatant was determined using a NanoDrop spectrophotometer (Shimadzu). Supernatants with RNA levels of >250 ng/μL were aliquoted (100 μL), flash frozen in liquid nitrogen, and stored at −80°C.

[2] = tested on: asexual-blood-stage P. falciparum; settings: cited from earlier work
[3] = tested on: human translation (HEK 293F lysate); assay: Human in vitro translation (HsIVT) assay, HEK 293F lysate, luciferase reporter; type: biochemical; settings: for effect on translation in the HsIVT assay (Fig. S3A): 10 µM, three technical replicates
From the text: as §1, §2
FreeStyle human embryonic kidney (HEK) 293F cells (Thermo Fisher Scientific) were grown in 500-mL polycarbonate Erlenmeyer vented flasks (Corning) containing FreeStyle 293 expression medium (Life Technologies) upon reaching a density of approximately 2 × 10^6. Cells were then centrifuged at 1,000 × g for 10 min at 4°C, the medium was discarded, and the resulting pellet was washed once in buffer II containing 20 U of human placental RNase inhibitor (Sigma-Aldrich) and cOmplete EDTA-free inhibitor cocktail (Roche) before being centrifuged at 2,800 × g for 10 min. Clarified HEK cell lysate was obtained in the same way as described for P. falciparum lysate.
PfIVT and HsIVT reactions (5 μL final volume) were performed in 384-well plates (Corning) containing 50% lysate from cells (either P. falciparum or HEK 293F), 10% amino acid solution (final concentration of 400 μM for each amino acid in 60 mM KOH; biotechrabbit), 10% energy recovery solution (final assay concentrations of 40 mM HEPES [pH 7.4], 1.5 mM ATP, 0.15 mM GTP, […] creatine phosphate, and 40 U/mL creatine phosphokinase), 10% helper solution (final assay concentrations of 200 μM cystine, 2% polyethylene glycol 3000 [PEG 3000], 1 mM spermidine, 0.5 mM folinic acid, and 15 μM leupeptin), 10% supplemental salt solution (22.5 mM HEPES [pH 7.4], 50 mM potassium acetate, 1 mM magnesium acetate, 1 mM DTT, 1 U/mL human placental RNase inhibitor, 0.1 mM leupeptin), and 10% cbg99 luciferase mRNA (3,000 ng/mL). A master mix solution containing all components was prepared on ice prior to assays, and 5 μL was dispensed into wells using an automated Integra VIAFLO 16-channel 12.5-μL pipette.

[4] = tested on: asexual-blood-stage (ABS) P. falciparum; assay: SYBR green-based P. falciparum asexual growth inhibition assay; type: cell-based; settings: Plasmodium falciparum
Method: The Plasmodium falciparum reference strain 3D7 used throughout this study was cultured as previously described ([39]). Briefly, cultures incubated at 37°C in a humidified atmosphere of 1% O2 and 3% CO2 in balance with N2 were maintained in RPMI 1640 media supplemented with 5% A^+ human red blood cells (provided by the Scottish National Blood Transfusion Service), 25 mM HEPES, 2 mM L-glutamine, 0.5% AlbuMAX II (Gibco), 12 mM sodium bicarbonate, 0.2 mM hypoxanthine, and 20 mg/L gentamicin (pH 7.3).
Our SYBR green asexual-growth assay was based on a previous report ([45]). In brief, 96-well black clear-bottom plates (Corning) were preprinted with a compound and normalized with DMSO to 0.5% of a total assay volume of 100 μL. Highly synchronized ring-stage parasites and blood were added to a 2% final parasitemia and 1% hematocrit. The compounds were incubated with parasites for 72 h prior to freezing at −20°C (to aid cell lysis). The plate was thawed on ice and lysis buffer (20 mM Tris pH 7.5, 5 mM EDTA, 0.008% [w/v] saponin, […]) containing SYBR green I (Thermo Fisher Scientific) at a final concentration of 0.02% (v/v) was added. The 96-well plate was equilibrated to room temperature for 1 h before fluorescence was determined on a TECAN Infinite Pro 200 microplate reader using green fluorescent protein (GFP) filters (excitation, 485 nm; emission, 535 nm). Data were fitted to a two-parameter equation using GraFit version 7.0 (Erithacus Software), and EC50 values were calculated. An excess of the standard inhibitor mefloquine (10 μM) was used to define 0% parasite growth.

[5] = biological target: CBG99 luciferase (Pyrophorus plagiophthalamus, UniProt Q7M4K1); assay: Luciferase counterscreen (false-positive counterscreen); type: biochemical, click beetle; settings: read-out: IC50 value (μM) Counterscreen, weighted mean ± SD of two technical replicates
CBG99 luciferase, sequence (Q7M4K1 entry or part of it): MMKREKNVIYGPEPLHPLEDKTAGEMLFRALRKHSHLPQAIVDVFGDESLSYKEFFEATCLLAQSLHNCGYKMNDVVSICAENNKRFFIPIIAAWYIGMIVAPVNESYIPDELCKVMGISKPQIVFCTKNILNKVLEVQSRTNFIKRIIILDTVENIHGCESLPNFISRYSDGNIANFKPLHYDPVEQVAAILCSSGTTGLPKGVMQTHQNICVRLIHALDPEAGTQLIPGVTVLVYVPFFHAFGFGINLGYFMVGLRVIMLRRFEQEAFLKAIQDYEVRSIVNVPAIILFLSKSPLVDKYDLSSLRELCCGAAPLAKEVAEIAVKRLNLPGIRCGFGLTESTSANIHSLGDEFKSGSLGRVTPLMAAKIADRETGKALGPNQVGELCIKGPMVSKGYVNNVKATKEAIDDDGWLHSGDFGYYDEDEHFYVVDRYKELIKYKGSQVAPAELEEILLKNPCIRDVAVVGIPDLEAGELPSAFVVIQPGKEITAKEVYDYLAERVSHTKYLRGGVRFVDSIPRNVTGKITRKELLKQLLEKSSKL
Method: Hits identified in our primary assay screen were assessed for their potential to interfere with the cbg99 luciferase reporter. For this counterscreen, the master mix containing all the components required for translation (as described above) was incubated for 210 min at 32°C, resulting in the in vitro translation of cbg99 luciferase. The produced luciferase was then incubated with test compounds for 5 min prior to the addition of luciferase reaction buffer. […] Hits from the primary screen were assessed as luciferase inhibitors in 8-point dose-dependent assays ranging from 30 μM to 13.7 nM (1:3 dilutions). Levels of luciferase inhibition were determined relative to the positive control.

[6] = established inhibitors of protein translation, read-out: IC50 values, µM PfIVT (Table S1)
[7] = established inhibitors of protein translation, read-out: EC50 values, µM PfABS (Table S1)
[8] = Pathogen Box hits, 8-point, weighted mean ± SD of two technical replicates, read-out: IC50 value (μM) PfIVT
[9] = Pathogen Box hits, weighted mean ± SD of two technical replicates, read-out: IC50 value (μM) HsIVT
[10] = P. falciparum 3D7 cell line, read-out: P. falciparum asexual-blood-stage EC50
[11] = P. falciparum Dd2 cell line, read-out: P. falciparum asexual-blood-stage EC50

Compound | IC50 [1, 6] [µM] | selectivity index/window, PfIVT compared to HsIVT [1] [fold] | IC50 [1, 8] [µM] | IC50 ([1]; Table 3, read-out: PfIVT IC50) [µM] | PfIVT inhibition at 30 μM (%) ([1]; Pathogen Box) | IC50 [3, 9] [µM] | IC50 ([5]; Pathogen Box hits) | EC50 [2, 10] [µM] | also measured
C[C@@H]1C[C@H](C)C[C@H](C)[C@@H](O)CC(=O)O[C@H]([C@@H]2CCC[C@H]2C(=O)O)C/C=C/C=C(/C#N)[C@H](O)[C@@H](C)C1 [Borrelidin, borrelidin, reference compound] | 1.2 |  |  |  |  |  |  |  | EC50 ([2]; ref 50 (supplement numbering), read-out: EC50 values, µM PfABS (Table S1)): 0.002 µM
C[C@H]1CCC[C@H](C[C@H]2Cc3cc(O)cc(O)c3C(=O)O2)O1 [Cladosporin, cladosporin, reference compound] | 13 |  |  |  |  |  |  |  | effect on translation in the HsIVT assay (Fig. S3A) [3]: little or no effect; activity in HsIVT assay at 100 μM ([3]; 100 μM): inactive; EC50 [4, 7]: 0.07 µM
C[C@@H]1C[C@@H]([C@H](O)CC2CC(=O)NC(=O)C2)C(=O)[C@@H](C)C1 [Cycloheximide, cycloheximide, reference compound] | 0.5 |  |  |  |  |  |  |  | inhibition of translation in HsIVT assay (validation) [3]: successfully inhibit translation; effect on translation in the HsIVT assay (Fig. S3A) [3]: ablated activity; IC50 ([3]; weighted mean ± SD from at least two biological replicates, read-out: IC50 in the HsIVT assay (Fig. S3B)): 1.2 ± 0.04 µM; EC50 ([4]; read-out: EC50 values, µM PfABS (Table S1)): 0.1 µM
O=C(NCCN1CCCC1)c1cc(-c2ccc(CN3CCOCC3)cc2Cl)nc2ccc(F)cc12 [DDD00197451, reference compound] | 0.5 |  |  |  |  |  |  |  | inhibition of translation (PfIVT), internal control ([1]; internal control in all plates of the single-point screens): > 97%; EC50 [4, 7]: 0.003 µM
NCCCC[C@H](N)C(=O)NS(=O)(=O)OC[C@H]1O[C@@H](n2cnc3c(N)ncnc32)[C@H](O)[C@@H]1O [DDD01712277, reference compound] | 0.2 |  |  |  |  |  |  |  | EC50 [4, 7]: 0.1 µM
Cc1ccc2c(c1C)NC(=O)C21NN=C(c2ccccc2)S1 (stereo not drawn) [MMV019189] |  | ≥ 30 | 0.03 ± 0.009 | 0.03 ± 0.009 | 84.4 | 7.7 ± 0.3 | 7 µM and > 30 µM | 0.75 | 
O=C(NCCN1CCCC1)c1cc(NCCN2CCOCC2)nc2ccc(Cl)cc12 [MMV634140] |  |  | 2.9 ± 0.09 | 3 ± 0.09 | 88.4 | > 30 | > 30 µM | 0.09 | EC50 ([2]; asexual-blood-stage P. falciparum, Table 3 footnote: 3D7, read-out: ABS EC50 (text)): 0.041 µM
O=C(NCCN1CCCC1)c1cc(NCCCCN2CCC(F)(F)CC2)nc2ccc(Cl)cc12 [MMV667494] |  | ≥ 30 | 0.3 ± 0.09 | 0.3 ± 0.09 | 97.7 | > 30 | > 30 µM | 0.01 | 
O=C(Nc1c(O)cccc1-c1nc2c(C(=O)O)cccc2o1)c1cc(-c2ccccc2)on1 [MMV676008] |  | ≥ 30 | 0.4 ± 0.08 | 0.4 ± 0.08 | 74.9 | 12 ± 0.4 | 21 ± 0.6 µM | > 20 | IC50 ([1]; read-out: PfIVT IC50 (text)): 0.04 µM; EC50 ([2]; Table 3 footnote: 3D7, read-out: EC50 against P. falciparum (text)): > 25 µM
O=C(Nc1ccc(C(F)(F)F)c(C(F)(F)F)c1)c1cc(Cl)ccc1O [MMV687807] |  | ≤ 5 | 0.09 ± 0.007 | 0.09 ± 0.007 | 95.1 | 0.5 ± 0.006 | 25 ± 0.8 µM | 1.8 | 
O=C(Nc1ccc(F)c(-c2nc3cc(-c4ccccc4)cnc3[nH]2)c1)N1CCCC1 [MMV688372] |  |  |  |  | 62.9 |  |  |  | EC50 ([4]; 3D7, 72 h, read-out: P. falciparum asexual-blood-stage EC50): 13.6 µM; EC50 ([4]; read-out: EC50 against P. falciparum (text)): 14 µM
Cc1ccc(NC(=O)c2cc(Cl)ccc2O)cc1 [MMV1578897] |  |  |  |  |  |  |  |  | PfIVT inhibition at 30 μM (%) ([1]; Pandemic Box): 93.4%; EC50 [2, 11]: 5 µM
Nc1nc(NC2Cc3ccc(F)cc3C2)nc(N2CCCCC2)n1 (stereo not drawn) [MMV1580839] |  |  |  | 0.8 ± 0.08 |  |  |  |  | PfIVT IC50 (μM) [1]: submicromolar potency; IC50 ([1]; Pandemic Box hits, 8-point, weighted mean ± SD of two technical replicates, read-out: IC50 value (μM) PfIVT): 0.8 ± 0.08 µM; PfIVT inhibition at 30 μM (%) ([1]; Pandemic Box): 73.3%; IC50 ([3]; Pandemic Box hits, weighted mean ± SD of two technical replicates, read-out: IC50 value (μM) HsIVT): 7.6 ± 0.12 µM; IC50 ([3]; read-out: HsIVT IC50 (text)): 8 µM; IC50 ([5]; Pandemic Box hits): 8.3 ± 0.08 µM; EC50 [2, 11]: 5 µM

Source: article PMC9211397, “High-Throughput Screening Platform To Identify Inhibitors of Protein Synthesis with Potential for the Treatment of Malaria” (Antimicrobial Agents and Chemotherapy, 2022)
